The NIST ThermoML archive (doi:10.1016/j.fluid.2008.03.004)
± gives the expanded uncertainty stated by the source.

Experiment: xn = mol fraction of the nth substance listed
Conditions: 101 kPa, Liquid; for speed of sound: Sing-around technique in a fixed-path interferometer

CCOC(C)(C)C [2-ethoxy-2-methylpropane] + Cc1ccccc1C
Conditions	mass density [kg/m3]	speed of sound [m/s]
305.65 K, x1 = 0.055	860.769 ± 0.41	–
305.65 K, x1 = 0.098	854.986 ± 0.41	–
305.65 K, x1 = 0.201	840.317 ± 0.43	–
305.65 K, x1 = 0.307	825.151 ± 0.46	–
305.65 K, x1 = 0.4	811.766 ± 0.47	–
305.65 K, x1 = 0.502	797.158 ± 0.49	–
305.65 K, x1 = 0.601	783.634 ± 0.51	–
305.65 K, x1 = 0.661	775.073 ± 0.53	–
305.65 K, x1 = 0.803	755.208 ± 0.56	–
305.65 K, x1 = 0.895	742.232 ± 0.57	–
305.65 K, x1 = 0.947	735.025 ± 0.58	–
305.65 K, x1 = 1	727.038 ± 0.58	–
308.15 K, x1 = 0.055	858.631 ± 0.41	1287.6 ± 2.2
308.15 K, x1 = 0.098	852.826 ± 0.42	1274.8 ± 2.2
308.15 K, x1 = 0.201	838.108 ± 0.44	1241.4 ± 2.2
308.15 K, x1 = 0.307	822.889 ± 0.46	1205.4 ± 2.2
308.15 K, x1 = 0.4	809.458 ± 0.48	1176.8 ± 2.2
308.15 K, x1 = 0.502	794.798 ± 0.5	1143 ± 2.2
308.15 K, x1 = 0.601	781.229 ± 0.52	1112.4 ± 2.2
308.15 K, x1 = 0.661	772.636 ± 0.53	1093.1 ± 2.2
308.15 K, x1 = 0.803	752.697 ± 0.56	1049.4 ± 2.2
308.15 K, x1 = 0.895	739.673 ± 0.58	1022.1 ± 2.2
308.15 K, x1 = 0.947	732.438 ± 0.59	1007 ± 2.2
308.15 K, x1 = 1	724.443 ± 0.58	986.39 ± 2.2
310.65 K, x1 = 0.055	856.488 ± 0.41	1277.2 ± 2.2
310.65 K, x1 = 0.098	850.664 ± 0.42	1264.8 ± 2.2
310.65 K, x1 = 0.201	835.894 ± 0.44	1231.1 ± 2.2
310.65 K, x1 = 0.307	820.623 ± 0.46	1195 ± 2.2
310.65 K, x1 = 0.4	807.147 ± 0.48	1166.3 ± 2.2
310.65 K, x1 = 0.502	792.433 ± 0.5	1132.4 ± 2.2
310.65 K, x1 = 0.601	778.816 ± 0.52	1101.8 ± 2.2
310.65 K, x1 = 0.661	770.192 ± 0.53	1082.4 ± 2.2
310.65 K, x1 = 0.803	750.176 ± 0.56	1038.6 ± 2.2
310.65 K, x1 = 0.895	737.1 ± 0.58	1011.2 ± 2.2
310.65 K, x1 = 0.947	729.838 ± 0.59	996 ± 2.2
310.65 K, x1 = 1	721.826 ± 0.59	975.42 ± 2.2
313.15 K, x1 = 0.055	854.337 ± 0.41	1267.1 ± 2.2
313.15 K, x1 = 0.098	848.496 ± 0.42	1254.7 ± 2.2
313.15 K, x1 = 0.201	833.676 ± 0.44	1220.9 ± 2.2
313.15 K, x1 = 0.307	818.351 ± 0.47	1184.6 ± 2.2
313.15 K, x1 = 0.4	804.83 ± 0.48	1155.9 ± 2.2
313.15 K, x1 = 0.502	790.061 ± 0.51	1121.9 ± 2.2
313.15 K, x1 = 0.601	776.395 ± 0.52	1091.1 ± 2.2
313.15 K, x1 = 0.661	767.738 ± 0.54	1071.7 ± 2.2
313.15 K, x1 = 0.803	747.65 ± 0.57	1027.7 ± 2.2
313.15 K, x1 = 0.895	734.522 ± 0.58	1000.3 ± 2.2
313.15 K, x1 = 0.947	727.227 ± 0.6	985.03 ± 2.2
313.15 K, x1 = 1	719.179 ± 0.59	964.53 ± 2.2
315.65 K, x1 = 0.055	852.189 ± 0.42	1256.9 ± 2.2
315.65 K, x1 = 0.098	846.323 ± 0.43	1244.6 ± 2.2
315.65 K, x1 = 0.201	831.454 ± 0.45	1210.7 ± 2.2
315.65 K, x1 = 0.307	816.076 ± 0.47	1174.3 ± 2.2
315.65 K, x1 = 0.4	802.508 ± 0.49	1145.5 ± 2.2
315.65 K, x1 = 0.502	787.684 ± 0.51	1111.4 ± 2.2
315.65 K, x1 = 0.601	773.969 ± 0.53	1080.5 ± 2.2
315.65 K, x1 = 0.661	765.278 ± 0.54	1061 ± 2.2
315.65 K, x1 = 0.803	745.112 ± 0.57	1017 ± 2.2
315.65 K, x1 = 0.895	731.932 ± 0.59	989.44 ± 2.2
315.65 K, x1 = 0.947	724.606 ± 0.6	974.07 ± 2.2
315.65 K, x1 = 1	716.527 ± 0.59	953.54 ± 2.2
318.15 K, x1 = 0.055	850.034 ± 0.42	1246.8 ± 2.2
318.15 K, x1 = 0.098	844.148 ± 0.43	1234.5 ± 2.2
318.15 K, x1 = 0.201	829.229 ± 0.45	1200.6 ± 2.2
318.15 K, x1 = 0.307	813.795 ± 0.47	1164.1 ± 2.2
318.15 K, x1 = 0.4	800.179 ± 0.49	1135.1 ± 2.2
318.15 K, x1 = 0.502	785.298 ± 0.51	1100.9 ± 2.2
318.15 K, x1 = 0.601	771.536 ± 0.53	1070 ± 2.2
318.15 K, x1 = 0.661	762.809 ± 0.55	1050.4 ± 2.2
318.15 K, x1 = 0.803	742.564 ± 0.57	1006.2 ± 2.2
318.15 K, x1 = 0.895	729.329 ± 0.59	978.59 ± 2.2
318.15 K, x1 = 0.947	721.974 ± 0.6	963.16 ± 2.2
318.15 K, x1 = 1	713.96 ± 0.6	942.67 ± 2.2
320.65 K, x1 = 0.055	847.874 ± 0.42	1236.7 ± 2.2
320.65 K, x1 = 0.098	841.964 ± 0.43	1224.5 ± 2.2
320.65 K, x1 = 0.201	826.995 ± 0.45	1190.5 ± 2.2
320.65 K, x1 = 0.307	811.507 ± 0.48	1153.8 ± 2.2
320.65 K, x1 = 0.4	797.84 ± 0.5	1124.8 ± 2.2
320.65 K, x1 = 0.502	782.908 ± 0.52	1090.4 ± 2.2
320.65 K, x1 = 0.601	769.096 ± 0.54	1059.4 ± 2.2
320.65 K, x1 = 0.661	760.332 ± 0.55	1039.8 ± 2.2
320.65 K, x1 = 0.803	740.007 ± 0.58	995.53 ± 2.2
320.65 K, x1 = 0.895	726.717 ± 0.6	967.79 ± 2.2
320.65 K, x1 = 0.947	719.329 ± 0.61	952.29 ± 2.2
320.65 K, x1 = 1	711.25 ± 0.6	931.73 ± 2.2
323.15 K, x1 = 0.055	845.711 ± 0.43	1226.7 ± 2.2
323.15 K, x1 = 0.098	839.779 ± 0.44	1214.5 ± 2.2
323.15 K, x1 = 0.201	824.757 ± 0.46	1180.4 ± 2.2
323.15 K, x1 = 0.307	809.216 ± 0.48	1143.6 ± 2.2
323.15 K, x1 = 0.4	795.504 ± 0.5	1114.5 ± 2.2
323.15 K, x1 = 0.502	780.509 ± 0.52	1080 ± 2.2
323.15 K, x1 = 0.601	766.647 ± 0.54	1049 ± 2.2
323.15 K, x1 = 0.661	757.845 ± 0.55	1029.2 ± 2.2
323.15 K, x1 = 0.803	737.438 ± 0.58	984.84 ± 2.2
323.15 K, x1 = 0.895	724.092 ± 0.6	957.05 ± 2.2
323.15 K, x1 = 0.947	716.673 ± 0.61	941.53 ± 2.2
323.15 K, x1 = 1	708.642 ± 0.61	920.73 ± 2.2
